Measurements: PubChem BioAssay (NCI)
Several values for one entry are separate records, joined by “and”; a condition that tells them apart may be missing. Equal entries are not always repeated.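 All cell lines were grown in 96-well plates and treated with compound for 48 hours. Here, GI50 denotes the concentration required for 50% inhibition of growth. TGI denotes the concentration required for complete inhibition of growth.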

Tests used:
Assay in all cases: inhibition of tumour cell growth, NCI panel, 48 h
[1] = tested on: NCI-H460 lung
[2] = tested on: ACHN renal
[3] = tested on: SNB-75 CNS
[4] = tested on: HT29 colon
[5] = tested on: SK-MEL-28 melanoma
[6] = tested on: SK-MEL-2 melanoma
[7] = tested on: CCRF-CEM leukemia
[8] = tested on: LOX IMVI melanoma
[9] = tested on: M14 melanoma
[10] = tested on: MCF7 breast

| Structure (SMILES) | TGI [1] | TGI [2] [µM] | TGI [3] [µM] | TGI [4] [µM] | TGI [5] [µM] | TGI [6] | TGI [7] | TGI [8] | TGI [9] | GI50 [10] [µM] | GI50 [2] [µM] | GI50 [4] [µM] | GI50 [5] [µM] | GI50 [7] [µM] | GI50 [9] [µM] | TGI [10] [µM] | GI50 [6] [µM] | GI50 [8] [µM] |
| --- | --- | --- | --- | --- | --- | --- | --- | --- | --- | --- | --- | --- | --- | --- | --- | --- | --- | --- |
| O=C1C=CC(=O)C2=C1[C@@H](O)C1CC=CC3C(=O)O[C@@H]2C31 (some centres not stated) | > 100 µM | > 69.9 | 50.7 | > 65.4 | > 62.3 | 35.6 µM | 42.9 µM | 50.1 µM | 36 µM | – | – | – | – | – | – | – | – | – |
| Cc1cccc(/C=N/NC(=S)N2CCCC2)n1 | > 42 µM | – | – | > 100 | > 100 | – | 0.85 µM | > 41.4 µM | 2.64 µM and 0.485 µM | 0.169 | 1.44 | 4.49 | 1.42 | 0.0659 | 0.392 | – | – | – |
| N/N=C(/C(=O)Nc1cccc(Cl)c1)C(C(=O)c1ccc(O)cc1O)C1OC(=O)c2ccccc21 (configuration not stated) | > 100 µM | > 100 | – | > 100 | > 100 | > 100 µM | > 100 µM | > 100 µM | > 100 µM | – | – | – | – | – | – | – | – | – |
| CC(CN(C)C)/C(=N\Nc1ccccc1)c1ccccc1 (configuration not stated) | 15.5 µM | 2.08 | 66.8 | 17.9 | 5.79 | – | 29.3 µM | 4.16 µM | 16.8 µM | – | – | – | – | – | – | – | – | – |
| CSc1nnc(CCC(=O)Nc2c(C)cccc2C)o1 | > 100 µM | – | > 100 | > 100 | > 100 | > 100 µM | > 100 µM | > 100 µM | > 100 µM | – | – | – | – | – | – | – | – | – |
| C=C/C=C/NC(=O)OCc1ccccc1 | > 100 µM | > 100 | > 100 | > 100 | > 100 | > 100 µM | > 100 µM | > 100 µM | > 100 µM | – | – | – | – | – | – | – | – | – |
| CC(=O)Nc1ccc(S(=O)(=O)N/N=C/CN2C(=O)c3ccccc3C2=O)cc1 | > 100 µM | > 100 | > 100 | > 100 | – | > 100 µM | > 100 µM | > 100 µM | > 100 µM | – | – | – | – | – | – | – | – | – |
| O=[N+]([O-])c1ccc(-n2nnc(C3=NCCN3)c2-c2ccccc2)cc1 | > 100 µM | > 100 | > 100 | > 100 | > 100 | > 100 µM | > 100 µM | > 100 µM | > 100 µM | – | – | – | – | – | – | – | – | – |
| C[C@H](OCc1ccccc1)C(=O)N1CCS(=O)(=O)N2CCC[C@@H]2C1=O | > 100 µM | > 100 | > 100 | > 100 | > 100 | – | > 100 µM | > 100 µM | > 100 µM | – | – | – | – | – | – | – | – | – |
| NC(=O)N/N=C1/CCC(O)CC1CC(=O)O (configuration not stated) | > 100 µM | > 100 | – | > 100 | > 100 | > 100 µM | > 100 µM | > 100 µM | > 100 µM | – | – | – | – | – | – | > 100 | – | – |
| O=C(O)CC[C@H](NC(=O)c1ccc(-n2nc3ccc(O)cc3nc2=O)cc1)C(=O)O | > 100 µM | > 100 | – | > 100 | > 100 | > 100 µM | > 100 µM | – | > 100 µM | – | – | – | – | – | – | – | – | – |
| CC[C@@]1(O)C(=O)OCc2c1cc1n(c2=O)Cc2cc3cc4c(cc3nc2-1)OCO4 | 0.0876 µM and 0.0232 µM | – | – | – | – | 0.173 µM and 0.997 µM | 0.0152 µM and < 0.0414 µM | 0.109 µM and 0.0506 µM | – | – | – | – | 0.0971 | – | – | – | 0.204 | < 0.001 |
